Source: ChEMBL document CHEMBL1201862, “PubChem BioAssay data set” (2004)
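Test compounds were applied to cells in 96-well plates for 48 hours at 5 doses. Abbreviation: GI50, concentration required for 50% inhibition of growth.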 Calls of active or inactive are those of the source. Cut-off read from the data, not from the text of the source: active = GI50 up to about 1.1 µM and inactive = higher.

What was measured:
Test in all cases: DTP human tumour cell line panel, 48 h
EKVX = test system: EKVX
HCT-15 = test system: HCT-15
DLD-1 = test system: DLD-1
HOP-18 = test system: HOP-18
COLO 205 = test system: COLO 205
DMS-114 = test system: DMS-114
Malme-3M = test system: Malme-3M
K562 = test system: K562
RXF 393 = test system: RXF 393
MOLT-4 = test system: MOLT-4
ACHN = test system: ACHN
HOP-92 = test system: HOP-92
NCI-H226 = test system: NCI-H226
A498 = test system: A498
OVCAR-4 = test system: OVCAR-4
CCRF-CEM = test system: CCRF-CEM
M14 = test system: M14
SK-MEL-5 = test system: SK-MEL-5
HL-60 = test system: HL-60
RPMI-8226 = test system: RPMI-8226
OVCAR-3 = test system: OVCAR-3
CAKI-1 = test system: CAKI-1
A549 = test system: A549
IGROV-1 = test system: IGROV-1
KM-20L2 = test system: KM-20L2
HT-29 = test system: HT-29
SR = test system: SR
HCC 2998 = test system: HCC 2998
SNB-78 = test system: SNB-78
NCI-H23 = test system: NCI-H23
SNB-75 = test system: SNB-75
HCT-116 = test system: HCT-116
M19-MEL = test system: M19-MEL
TK-10 = test system: TK-10
LXFL 529 = test system: LXFL 529
UACC-257 = test system: UACC-257
SN12C = test system: SN12C
NCI-H460 = test system: NCI-H460
SNB-19 = test system: SNB-19
SK-MEL-28 = test system: SK-MEL-28
OVCAR-8 = test system: OVCAR-8
786-0 = test system: 786-0
UO-31 = test system: UO-31
SW-620 = test system: SW-620
UACC-62 = test system: UACC-62
SF-539 = test system: SF-539
SF-295 = test system: SF-295
RXF 631 = test system: RXF 631
OVCAR-5 = test system: OVCAR-5
LOX IMVI = test system: LOX IMVI
SF-268 = test system: SF-268
HOP-62 = test system: HOP-62
SK-MEL-2 = test system: SK-MEL-2
KM12 = test system: KM12
SK-OV-3 = test system: SK-OV-3
DMS-273 = test system: DMS-273
U-251 = test system: U-251
NCI-H522 = test system: NCI-H522

Measured: GI50

COc1cc2c(cc1O)CC13CCC(=O)N1CCc1cc(OC)c(O)c-2c13 (configuration not stated)
> 68.1 µM: HCT-15
inactive: EKVX > 68.1 µM | DLD-1 > 68.1 µM | HOP-18 > 68.1 µM | COLO 205 > 68.1 µM | DMS-114 > 68.1 µM | Malme-3M > 68.1 µM | K562 > 68.1 µM | RXF 393 > 68.1 µM | MOLT-4 > 68.1 µM | ACHN > 68.1 µM | HOP-92 > 68.1 µM | NCI-H226 > 68.1 µM | A498 > 68.1 µM | OVCAR-4 > 68.1 µM | CCRF-CEM > 68.1 µM | M14 > 68.1 µM | SK-MEL-5 > 68.1 µM | HL-60 > 68.1 µM | RPMI-8226 > 68.1 µM | OVCAR-3 > 68.1 µM | CAKI-1 > 68.1 µM | A549 > 68.1 µM | IGROV-1 > 68.1 µM | KM-20L2 > 68.1 µM | HT-29 > 68.1 µM | SR > 68.1 µM | HCC 2998 > 68.1 µM | SNB-78 > 68.1 µM | NCI-H23 > 68.1 µM | SNB-75 > 68.1 µM | HCT-116 > 68.1 µM | M19-MEL > 68.1 µM | TK-10 > 68.1 µM | LXFL 529 > 68.1 µM | UACC-257 > 68.1 µM | SN12C > 68.1 µM | NCI-H460 > 68.1 µM | SNB-19 > 68.1 µM | SK-MEL-28 > 68.1 µM | OVCAR-8 > 68.1 µM | 786-0 > 68.1 µM | UO-31 > 68.1 µM | SW-620 > 68.1 µM | UACC-62 > 68.1 µM | SF-539 > 68.1 µM | SF-295 > 68.1 µM | RXF 631 39.9 µM | OVCAR-5 > 68.1 µM | LOX IMVI > 68.1 µM | SF-268 > 68.1 µM | HOP-62 > 68.1 µM

CCOC(=O)c1ccc(N2C(=O)/C(=C/c3ccc(N(CCC#N)CCC#N)cc3)N=C2c2cc([N+](=O)[O-])ccc2Cl)cc1
> 100 µM: HCT-15
inactive: EKVX > 100 µM | DLD-1 > 100 µM | HOP-18 > 100 µM | COLO 205 > 100 µM | DMS-114 > 100 µM | Malme-3M > 100 µM | K562 > 100 µM | RXF 393 > 100 µM | MOLT-4 > 100 µM | ACHN > 100 µM | SK-MEL-2 > 100 µM | HOP-92 > 100 µM | NCI-H226 > 100 µM | OVCAR-4 > 100 µM | CCRF-CEM > 100 µM | SK-MEL-5 > 100 µM | RPMI-8226 > 100 µM | OVCAR-3 > 100 µM | CAKI-1 > 100 µM | KM12 > 100 µM | A549 > 100 µM | IGROV-1 > 100 µM | KM-20L2 > 100 µM | SK-OV-3 > 100 µM | SR > 100 µM | HCC 2998 > 100 µM | SNB-78 > 100 µM | DMS-273 > 100 µM | NCI-H23 > 100 µM | HCT-116 > 100 µM | U-251 > 100 µM | NCI-H522 > 100 µM | M19-MEL > 100 µM | TK-10 > 100 µM | LXFL 529 > 100 µM | SN12C > 100 µM | SNB-19 > 100 µM | SK-MEL-28 > 100 µM | OVCAR-8 > 100 µM | UO-31 > 100 µM | SW-620 > 100 µM | UACC-62 93.3 µM | SF-539 > 100 µM | SF-295 > 100 µM | RXF 631 > 100 µM | OVCAR-5 > 100 µM | LOX IMVI > 100 µM | SF-268 > 100 µM | HOP-62 > 100 µM
